Test results reported in patent US20230099344A1, “COMPOUNDS AND METHODS FOR THE TARGETED DEGRADATION OF IRAK-4” (Arvinas Operations, Inc., priority 2021, published 2023).

biological target: T1, IRAK-4 (Homo sapiens, UniProt Q9NWZ3); assay: IRAK-4 ELISA, PBMC degradation; format: cell-based; set-up: endogenous in cells; host or cells: PBMC; conditions: treated overnight
T1 sequence (Q9NWZ3 1-460): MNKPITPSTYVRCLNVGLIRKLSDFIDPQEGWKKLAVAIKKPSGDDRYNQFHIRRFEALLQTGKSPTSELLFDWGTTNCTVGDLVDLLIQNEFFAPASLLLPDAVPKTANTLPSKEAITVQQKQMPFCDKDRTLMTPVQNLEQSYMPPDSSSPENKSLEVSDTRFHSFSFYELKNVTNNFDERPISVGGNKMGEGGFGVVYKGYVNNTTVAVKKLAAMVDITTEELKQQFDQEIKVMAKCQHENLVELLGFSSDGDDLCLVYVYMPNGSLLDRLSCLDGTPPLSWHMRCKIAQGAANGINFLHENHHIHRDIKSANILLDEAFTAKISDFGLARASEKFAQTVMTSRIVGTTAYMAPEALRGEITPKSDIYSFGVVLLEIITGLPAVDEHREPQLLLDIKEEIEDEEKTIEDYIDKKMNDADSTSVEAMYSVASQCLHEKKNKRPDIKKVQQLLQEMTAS
Method: Reagents: Human IRAK-4 Matched Antibody Pair Kit (Abcam ab218182) and ELISA Accessory Pack (Abcam ab210905).
Cell Treatment and Lysis:
1. OCI-Ly10: 200,000 cells are seeded at 1×10^6/ml in 96-well U-bottom plates 200 ul per well, treated with compound the same day. Incubate overnight. 2. PBMC: 800,000 cells are seeded at 2×10^6/ml in 96-well U-bottom deep-well plates, 400 ul per well, treated with compound the same day. Incubate overnight.
Cell lysate is collected and analyzed by ELISA for IRAK-4 levels.

| SMILES | DC50 [nM] | Dmax [%] | PBMC DC90 |
| --- | --- | --- | --- |
| O=C1CCC(N2C(=O)c3ccc(N4CC(CN5CCC(n6cc7cc(NC(=O)c8cnn9cccnc89)c(OC8CCC8)cc7n6)CC5)C4)cc3C2=O)C(=O)N1 (stereo not shown) [Example 197] | < 1 | 80 to 90 | A (A represents a DC90 value <10.0 nM) |
| CCN(C1CN(c2ccc(C(=O)NC3CCC(=O)NC3=O)c(F)c2)C1)[C@H]1CC[C@H](n2cc3cc(NC(=O)c4cnn5cccnc45)c(OC(C)C)cc3n2)CC1 (stereo partly shown) [Example 322] | 1 to 5 | ≥ 90 | A (A represents a DC90 value <10.0 nM) |
| CC(C)Oc1cc2c(cc1NC(=O)c1cnn3cccnc13)CN([C@H]1CC[C@H](N3CC4(CN(c5ccc6c(c5)CN(C5CCC(=O)NC5=O)C6=O)C4)C3)CC1)C2=O (stereo partly shown) [Example 284] | < 1 | ≥ 90 | A (A represents a DC90 value <10.0 nM) |
| CCN(C1CCC(N2Cc3cc(NC(=O)c4cnn5cccnc45)c(OC(C)C)cc3C2=O)CC1)C1CN(c2ccc3c(c2)CN(C2CCC(=O)NC2=O)C3=O)C1 (stereo not shown) [Example 330] | < 1 | ≥ 90 | A (A represents a DC90 value <10.0 nM) |
| O=C1CCC(N2Cc3cc(N4CC(F)(CN5CCC(n6cc7cc(NC(=O)c8cnn9cccnc89)c(OC8CCC8)cc7n6)CC5)C4)ccc3C2=O)C(=O)N1 (stereo not shown) [Example 214] | < 1 | 70 to 80 | A (A represents a DC90 value <10.0 nM) |
| O=C1CCC(NC(=O)c2ccc(N3CC(F)(CN4CCC(n5cc6cc(NC(=O)c7cnn8cccnc78)c(OCC7CC7)cc6n5)CC4)C3)cc2F)C(=O)N1 (stereo not shown) [Example 291] | 1 to 5 | ≥ 90 | B (B represents a DC90 value ≥10.0 nM and <25.0 nM) |
| CN(CC1(F)CCN(c2ccc3c(c2)C(=O)N(C2CCC(=O)NC2=O)C3=O)CC1)[C@H]1CC[C@H](n2cc3cc(NC(=O)c4cnn5cccnc45)c(OCC4CC4)cc3n2)CC1 (stereo partly shown) [Example 352] | 1 to 5 | 80 to 90 | B (B represents a DC90 value ≥10.0 nM and <25.0 nM) |
| CC(C)Oc1cc2c(cc1NC(=O)c1cnn3cccnc13)CN([C@H]1CC[C@H](N(C)C3CN(c4ccc5c(c4)CN(C4CCC(=O)NC4=O)C5=O)C3)CC1)C2=O (stereo partly shown) [Example 329] | < 1 | – | – |
| CC(C)Oc1cc2c(cc1NC(=O)c1cnn3cccnc13)CN([C@H]1CC[C@H](OC3CCN(c4ccc5c(c4)C(=O)N(C4CCC(=O)NC4=O)C5=O)CC3)CC1)C2=O (stereo partly shown) [Example 65] | 1 to 5 | ≥ 90 | A (A represents a DC90 value <10.0 nM) |
| CC(C)Oc1cc2nn(C[C@@H](F)C3CCN(CC4(F)CN(c5ccc6c(c5)C(=O)N(C5CCC(=O)NC5=O)C6=O)C4)CC3)cc2cc1NC(=O)c1cnn2cccnc12 (stereo partly shown) [Example 414] | 1 to 5 | 80 to 90 | B (B represents a DC90 value ≥10.0 nM and <25.0 nM) |
| CC(C)Oc1cc2c(cc1NC(=O)c1cnn3cccnc13)CN(C1CCN(C[C@H]3CCN(c4ccc5c(c4)C(=O)N(C4CCC(=O)NC4=O)C5=O)C3)CC1)C2=O (stereo partly shown) [Example 83] | 1 to 5 | ≥ 90 | A (A represents a DC90 value <10.0 nM) |
| Cn1c(=O)n(C2CCC(=O)NC2=O)c2cccc(N3CC(F)(CN4CCC(n5cc6cc(NC(=O)c7cnn8cccnc78)c(OCC7CC7)cc6n5)CC4)C3)c21 (stereo not shown) [Example 387] | < 1 | ≥ 90 | A (A represents a DC90 value <10.0 nM) |
| O=C1CCC(N2C(=O)c3ccc(N4CC(F)(CN5CCC(N6Cc7cc(NC(=O)c8cnn9cccnc89)c(OC8CC8)cc7C6=O)CC5)C4)cc3C2=O)C(=O)N1 (stereo not shown) [Example 85] | 1 to 5 | 80 to 90 | C (C represents a DC90 value ≥25.0 nM and <50 nM) |
| O=C1CCC(N2C(=O)c3ccc(N4CCC[C@H](CN5CCC(n6cc7cc(NC(=O)c8cnn9cccnc89)c(OCC8CC8)cc7n6)CC5)C4)cc3C2=O)C(=O)N1 (stereo partly shown) [Example 174] | 1 to 5 | ≥ 90 | B (B represents a DC90 value ≥10.0 nM and <25.0 nM) |
| O=C1CCC(N2C(=O)c3ccc(N4CC[C@H](N5CCC(n6cc7cc(NC(=O)c8cnn9cccnc89)c(OCC8CC8)cc7n6)CC5)C4)cc3C2=O)C(=O)N1 (stereo partly shown) [Example 225] | 1 to 5 | 80 to 90 | B (B represents a DC90 value ≥10.0 nM and <25.0 nM) |
| CC(C)Oc1cc2c(cc1NC(=O)c1cnn3ccc(N4CCOCC4)nc13)CN(C1CCN(CC3CN(c4ccc5c(c4)C(=O)N(C4CCC(=O)NC4=O)C5=O)C3)CC1)C2=O (stereo not shown) [Example 73] | 5 to 10 | 70 to 80 | D (D represents a DC90 value ≥50 nM) |
| O=C1CCC(N2Cc3cc(N4CCC(CN5CCC(N6Cc7cc(NC(=O)c8cnn9cccnc89)c(OC8CC8)cc7C6=O)CC5)CC4)ccc3C2=O)C(=O)N1 (stereo not shown) [Example 28] | < 1 | ≥ 90 | A (A represents a DC90 value <10.0 nM) |
| O=C1CCC(N2Cc3cc(N4CC(F)(CN5CCC(n6cc7cc(NC(=O)c8cnn9cccnc89)c(OCC8CC8)cc7n6)CC5)C4)c(F)cc3C2=O)C(=O)N1 (stereo not shown) [Example 421] | < 1 | 80 to 90 | A (A represents a DC90 value <10.0 nM) |
| O=C1CCC(N2C(=O)c3cc(F)c(N4CC(F)(CN5CCC(n6cc7cc(NC(=O)c8cnn9cccnc89)c(OCC8CC8)cc7n6)CC5)C4)cc3C2=O)C(=O)N1 (stereo not shown) [Example 229] | 5 to 10 | 80 to 90 | B (B represents a DC90 value ≥10.0 nM and <25.0 nM) |
| CC(C)Oc1cc2nn([C@H]3CC[C@H](N(C)C4CCN(c5ccc6c(c5)C(=O)N(C5CCC(=O)NC5=O)C6=O)CC4)CC3)cc2cc1NC(=O)c1cnn2cccnc12 (stereo partly shown) [Example 317] | < 1 | ≥ 90 | A (A represents a DC90 value <10.0 nM) |
| CN(CC1(F)CN(c2ccc3c(c2)C(=O)N(C2CCC(=O)NC2=O)C3=O)C1)[C@H]1CC[C@H](n2cc3cc(NC(=O)c4cnn5cccnc45)c(OCC4CC4)cc3n2)CC1 (stereo partly shown) [Example 350] | 1 to 5 | 70 to 80 | B (B represents a DC90 value ≥10.0 nM and <25.0 nM) |
| COc1cc2nn(C3CCN(CC4(F)CN(c5ccc6c(c5)C(=O)N(C5CCC(=O)NC5=O)C6=O)C4)CC3)cc2cc1NC(=O)c1cnn2ccc(C3C[C@H]4C[C@@H]3CO4)nc12 (stereo partly shown) [Example 238] | 1 to 5 | 70 to 80 | B (B represents a DC90 value ≥10.0 nM and <25.0 nM) |
| CC(C)Oc1cc2nn(C[C@@H](F)C3CCN(CC4CN(c5ccc6c(c5)C(=O)N(C5CCC(=O)NC5=O)C6=O)C4)CC3)cc2cc1NC(=O)c1cnn2cccnc12 (stereo partly shown) [Example 415] | 1 to 5 | 80 to 90 | A (A represents a DC90 value <10.0 nM) |
| CC(C)Oc1cc2nn(C3CCN(CC4(F)CN(c5ccc6c(n5)C(=O)N(C5CCC(=O)NC5=O)C6=O)C4)CC3)cc2cc1NC(=O)c1cnn2cccnc12 (stereo not shown) [Example 411, N-(2-(1-((1-(6-(2,6-dioxopiperidin-3-yl)-5,7-dioxo-6,7-dihydro-5H-pyrrolo[3,4-b]pyridin-2-yl)-3-fluoroazetidin-3-yl)methyl)piperidin-4-yl)-6-isopropoxy-2H-indazol-5-yl)pyrazolo[1,5-a]pyrimidine-3-carboxamide] | 5 to 10 | 80 to 90 | D (D represents a DC90 value ≥50 nM) |
| O=C1CCC(N2C(=O)c3ccc(N4CC(F)(CN5CCC(n6cc7cc(NC(=O)c8cnn9ccc(N%10C[C@H]%11C[C@@H]%10CO%11)nc89)c(C(F)F)cc7n6)CC5)C4)cc3C2=O)C(=O)N1 (stereo partly shown) [Example 410] | 5 to 10 | 80 to 90 | D (D represents a DC90 value ≥50 nM) |
| O=C1CCC(N2C(=O)c3ccc(N4CCO[C@H](CN5CCC(n6cc7cc(NC(=O)c8cnn9cccnc89)c(OCC8CC8)cc7n6)CC5)C4)cc3C2=O)C(=O)N1 (stereo partly shown) [Example 177] | < 1 | ≥ 90 | A (A represents a DC90 value <10.0 nM) |
| O=C1CCC(N2C(=O)c3ccc(N4CC(N(CC(F)(F)F)C5CCC(n6cc7cc(NC(=O)c8cnn9cccnc89)c(OCC8CC8)cc7n6)CC5)C4)cc3C2=O)C(=O)N1 (stereo not shown) [Example 327] | ≥ 10 | 80 to 90 | D (D represents a DC90 value ≥50 nM) |
| CC(C)Oc1cc2c(cc1NC(=O)c1cnn3cccnc13)CN(C1CCN(CC3CCN(c4ccc(C(=O)NC5CCC(=O)NC5=O)c(F)c4)CC3)CC1)C2=O (stereo not shown) [Example 286, N-[2-[1-[[1-[4-[(2,6-dioxo-3-piperidyl)carbamoyl]-3-fluoro-phenyl]-4-piperidyl]methyl]-4-piperidyl]-6-isopropoxy-1-oxo-isoindolin-5-yl]pyrazolo[1,5-a]pyrimidine-3-carboxamide] | 1 to 5 | ≥ 90 | B (B represents a DC90 value ≥10.0 nM and <25.0 nM) |
| CN(CC1(C)CCN(c2ccc3c(c2)C(=O)N(C2CCC(=O)NC2=O)C3=O)CC1)C1CCC(n2cc3cc(NC(=O)c4cnn5cccnc45)c(OCC4CC4)cc3n2)CC1 (stereo not shown) [Example 356] | 1 to 5 | ≥ 90 | A (A represents a DC90 value <10.0 nM) |
